Measured values as given in US8865750B2, “Small molecule inhibitors of RGS proteins” (The Regents of The University of Michigan, priority 2011, dated 2014).
Read-outs that look alike come from different tables or passages of the source.

Tests used:
RGS8 = RGS8 (Homo sapiens (Human), UniProt P57771); assay: FCPIA: Gαo binding to RGS8; details: for RGS8 Hill Slope: Table 3; for IC50: read-out: RGS8 IC50
Source text: (§1) FCPIA Dose Response and Reversibility Experiments:

RGS4 = assay: FCPIA: Gαo binding to RGS4; details: for RGS4 Hill Slope: Table 3; for IC50: read-out: RGS4 IC50; for activity at RGS4: FCPIA
Source text: as §1

HEK293 cells = assay: Calcium mobilization induced by compound alone; type: cell-based; details: Homo sapiens, HEK293; read-out: Calcium transient (% 50014);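 note: percent of response to 10 µM reference CCG-50014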
Method: Calcium Mobilization Experiments:
A stable cell line was developed based upon the HEK-293 Flp-In TREx cell line (Invitrogen, Carlsbad, Calif.) that stably express the muscarinic M3 receptor and have human RGS4 expression under doxycycline control. Cells were maintained in DMEM supplemented with 10% fetal bovine serum and Penicillin (100 units/ml)-Streptomycin (100 μg/ml) under 5% CO2 at 37° C. For experiments, cells were split into 96-well black, clear bottom, poly-D-lysine coated microtiter plates (Nunc, Cat. #152037) at a density of 20,000 cells/well in DMEM containing 10% fetal bovine serum and Penicillin (100 units/ml), Streptomycin (100 μg/ml). RGS4 expression was induced by supplementing the medium with 1 μg/mL doxycycline for 24-48 hours before experimentation. Cells were loaded with Fluo-4 No Wash dye in buffer for 30 minutes at 37° C. Compounds and/or carbachol were added to the wells and the fluorescence intensity was measured using a FlexStation (Molecular Devices, Sunnyvale, Calif.) plate reader. Data analysis was performed by calculating the area under the curve or maximal fluorescence intensity from a 120 second kinetic measurement.

[1] = Table 3, duplex FCPIA, average of two experiments
[2] = Table 2, mean of two independent FCPIA experiments

Chain of RGS8 (P57771 other isoform, or with tags, fused parts or gaps): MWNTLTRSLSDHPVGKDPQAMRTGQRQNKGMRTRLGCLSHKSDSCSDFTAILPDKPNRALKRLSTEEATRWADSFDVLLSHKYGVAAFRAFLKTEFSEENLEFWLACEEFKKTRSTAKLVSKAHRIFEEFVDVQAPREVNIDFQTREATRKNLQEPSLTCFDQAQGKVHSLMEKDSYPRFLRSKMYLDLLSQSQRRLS

SMILES	RGS8 Hill Slope (RGS8)	IC50 (RGS8; [1])	RGS4 Hill Slope (RGS4)	IC50 (RGS8; Table 6, FCPIA)	Emax at 10 µM (HEK293 cells)	also measured
O=c1sn(-c2cccc(Cl)c2)c(=O)n1Cc1ccc(F)cc1 [CCG-203776, 2-(3-chlorophenyl)-4-(4-fluorobenzyl)-1,2,4-thiadiazolidine-3,5-dione]	−1.07	12.8 µM	−1.08	–	223%	IC50 (RGS4; [1]): 0.052 µM
Cc1ccc(-n2sc(=O)n(Cc3cccc(Cl)c3)c2=O)cc1 [CCG-203777, 2-p-tolyl-4-(3-chlorobenzyl)-1,2,4-thiadiazolidine-3,5-dione]	−1.00	17.5 µM	−0.96	–	179%	IC50 (RGS4; [1]): 0.017 µM
Cc1ccc(-n2sc(=O)n(C)c2=O)cc1 [CCG-203759, 2-p-tolyl-4-methyl-1,2,4-thiadiazolidine-3,5-dione]	−1.06	–	−1.56	8.4 µM	238%	IC50 (RGS4; [1]): 0.019 µM
Cc1ccc(-n2sc(=O)n(Cc3cccc(C)c3)c2=O)cc1 [CCG-203782, 2-(4-methylphenyl)-4-(3-methylbenzyl)-1,2,4-thiadiazolidine-3,5-dione]	–	–	–	9.9 µM	–	IC50 (RGS4; Table 6, FCPIA): 0.0145 µM
COc1ccc(Cn2c(=O)sn(-c3ccc(C)cc3)c2=O)cc1 [CCG-203754, 2-p-tolyl-4-(4-methoxybenzyl)-1,2,4-thiadiazolidine-3,5-dione]	–	–	–	312 µM	–	–
COc1ccc(-n2sc(=O)n(Cc3ccc(C)cc3)c2=O)cc1 [S11, 2-(4-methoxyphenyl)-4-(4-methylbenzyl)-1,2,4-thiadiazolidine-3,5-dione]	–	–	–	6.6 µM	–	–
Cc1ccc(C2=CC(=O)N(Cc3ccccc3)C2=O)cc1 [compound 15, 1-benzyl-3-p-tolyl-1H-pyrrole-2,5-dione]	–	–	–	–	–	activity at RGS4 (RGS4): Neither 14 or 15 displayed activity at RGS4
CCCCn1sc(=O)n(CCCC)c1=O [CCG-203770, 2,4-dibutyl-1,2,4-thiadiazolidine-3,5-dione]	−0.53	122 µM	−0.83	–	188%	IC50 (RGS4; [1]): 0.03 µM
Cc1ccc(Cn2sc(=O)n(Cc3ccc(Cl)cc3)c2=O)cc1 [S8, 2-(4-methylbenzyl)-4-(4-chlorobenzyl)-1,2,4-thiadiazolidine-3,5-dione]	−0.60	337 µM	−1.23	337 µM	11.4%	–
O=c1sn(-c2cccc(Cl)c2)c(=O)n1Cc1ccccc1 [CCG-203773, 2-(3-chlorophenyl)-4-benzyl-1,2,4-thiadiazolidine-3,5-dione]	−0.87	–	−1.25	10.9 µM	199%	IC50 (RGS4; [1]): 0.033 µM
CC(C)(C)c1ccc(-n2sc(=O)n(Cc3ccccc3)c2=O)cc1 [S3, 2-(4-t-butylphenyl)-4-benzyl-1,2,4-thiadiazolidine-3,5-dione]	−0.78	17.4 µM	−1.79	17.4 µM	123%	–
O=c1sn(-c2ccc(Cl)c(Cl)c2)c(=O)n1Cc1ccccc1 [CCG-203725]	−1.62	–	−2.06	13.2 µM	64.2%	IC50 (RGS4; [1]): 0.089 µM
O=c1sn(-c2ccccc2)c(=O)n1Cc1ccc(Cl)cc1 [S4, 2-phenyl-4-(4-chlorobenzyl)-1,2,4-thiadiazolidine-3,5-dione]	–	–	–	7.5 µM	–	–
O=c1sn(-c2ccc(Cl)c(Cl)c2)c(=O)n1Cc1ccc(Cl)cc1 [S7, 2-(3,4-dichlorophenyl)-4-(4-chlorobenzyl)-1,2,4-thiadiazolidine-3,5-dione]	–	–	–	43.2 µM	–	–
CCn1sc(=O)n(Cc2ccc(F)cc2)c1=O [CCG-203766, 2-ethyl-4-(4-fluorobenzyl)-1,2,4-thiadiazolidine-3,5-dione]	–	–	–	18.7 µM	–	IC50 (RGS4; Table 6, FCPIA): 0.0223 µM
Cc1ccc(CN2C(=O)CN(c3ccc(C)cc3)C2=O)cc1 [CCG-203778]	–	–	–	–	–	IC50 (RGS8; [2]): > 100 µM; IC50 (RGS4; [2]): > 100 µM
CC(C)(C)c1ccc(-n2sc(=O)n(Cc3ccc(F)cc3)c2=O)cc1 [S1, 2-(4-t-butylphenyl)-4-(4-fluorobenzyl)-1,2,4-thiadiazolidine-3,5-dione]	–	–	–	50.4 µM	–	–
CCn1sc(=O)n(C)c1=O [CCG-203758, 2-ethyl-4-methyl-1,2,4-thiadiazolidine-3,5-dione]	–	–	–	37 µM	–	IC50 (RGS4; Table 6, FCPIA): 0.0223 µM
Cc1ccc(C2=CC(=O)N(Cc3ccccc3)C2=O)cc1 [CCG-203779]	–	–	–	–	–	IC50 (RGS4; [2]): 93 µM

Second part, led by results:

RGS8 Hill Slope (RGS8)	IC50 (RGS8; [1])	RGS4 Hill Slope (RGS4)	IC50 (RGS8; Table 6, FCPIA)	SMILES	Emax at 10 µM (HEK293 cells)	also measured
–	–	–	16.2 µM	O=c1sn(-c2cccc(C(F)(F)F)c2)c(=O)n1Cc1cccc(Cl)c1 [S18, 2-(3-trifluoromethylphenyl)-4-(3-chlorobenzyl)-1,2,4-thiadiazolidine-3,5-dione]	–	–
−0.64	92.9 µM	−2.42	92.9 µM	COc1ccc(Cn2c(=O)sn(Cc3ccc(C)cc3)c2=O)cc1 [S28, 2-(4-methylbenzyl)-4-(4-methoxybenzyl)-1,2,4-thiadiazolidine-3,5-dione]	169%	–
–	–	–	> 100 µM	Cc1ccc(CN2C(=O)CN(c3ccc(C)cc3)C2=O)cc1 [compound 14, 3-(4-methylbenzyl)-1-p-tolylimidazolidine-2,4-dione]	–	activity at RGS4 (RGS4): Neither 14 or 15 displayed activity at RGS4; IC50 (RGS4; Table 6, FCPIA): > 100 µM
−0.51	94.7 µM	−0.92	94.7 µM	Cc1ccc(Cn2sc(=O)n(Cc3ccc(C)cc3)c2=O)cc1 [S13, 2,4-bis(4-methylbenzyl)-1,2,4-thiadiazolidine-3,5-dione]	251%	–
–	> 100 µM	−1.36	> 100 µM	Cc1ccc(-n2sc(=O)n(Cc3ccc(C(C)(C)C)cc3)c2=O)cc1 [S34, 2-p-tolyl-4-(4-t-butylbenzyl)-1,2,4-thiadiazolidine-3,5-dione]	18.9%	–
−0.73	9.9 µM	−3.26	9.9 µM	COc1ccc(Cn2c(=O)sn(-c3ccc(Cl)cc3)c2=O)cc1 [S25, 2-(4-chlorophenyl)-4-(4-methoxybenzyl)-1,2,4-thiadiazolidine-3,5-dione]	84.6%	–
–	–	–	17.8 µM	Cc1cccc(Cn2c(=O)sn(-c3ccc(C(C)(C)C)cc3)c2=O)c1 [S20, 2-(4-t-butylphenyl)-4-(3-methylbenzyl)-1,2,4-thiadiazolidine-3,5-dione]	–	–
–	–	–	31 µM	Cc1cccc(Cn2c(=O)sn(-c3cccc(Cl)c3)c2=O)c1 [S22, 2-(3-chlorophenyl)-4-(3-methylbenzyl)-1,2,4-thiadiazolidine-3,5-dione]	–	–
−1.03	15.9 µM	–	15.9 µM	Cc1cccc(Cn2c(=O)sn(-c3cccc(C(F)(F)F)c3)c2=O)c1 [S23, 2-(3-trifluoromethylphenyl)-4-(3-methylbenzyl)-1,2,4-thiadiazolidine-3,5-dione]	65.2%	–
–	–	–	32.2 µM	CC(C)(C)c1ccc(-n2sc(=O)n(Cc3cccc(Cl)c3)c2=O)cc1 [S15, 2-(4-t-butylphenyl)-4-(3-chlorobenzyl)-1,2,4-thiadiazolidine-3,5-dione]	–	–
–	–	–	175 µM	Cc1ccc(Cn2c(=O)sn(-c3ccc(Cl)c(Cl)c3)c2=O)cc1 [S!2, 2-(3,4-dichlorophenyl)-4-(4-methylbenzyl)-1,2,4-thiadiazolidine-3,5-dione]	–	–
